Reference: ChEMBL document CHEMBL5029185, “Discovery of Novel Polycyclic Heterocyclic Derivatives from Evodiamine for the Potential Treatment of Triple-Negative Breast Cancer” (J Med Chem, 2021)
Active and inactive are the calls of the source. No cut-off for these calls is given here.

Key:
[1] = target: T1, DNA topoisomerase 1 (Homo sapiens) (UniProt P11387); test: Inhibition of topoisomerase 1 (unknown origin) assessed as relaxation of supercoiled plasmid pBR322 DNA upto 500 uM incubated for 15 mins by agarose gel electrophoresis; details: dose microM <=500, time 15.0 min
T1 sequence (whole entry): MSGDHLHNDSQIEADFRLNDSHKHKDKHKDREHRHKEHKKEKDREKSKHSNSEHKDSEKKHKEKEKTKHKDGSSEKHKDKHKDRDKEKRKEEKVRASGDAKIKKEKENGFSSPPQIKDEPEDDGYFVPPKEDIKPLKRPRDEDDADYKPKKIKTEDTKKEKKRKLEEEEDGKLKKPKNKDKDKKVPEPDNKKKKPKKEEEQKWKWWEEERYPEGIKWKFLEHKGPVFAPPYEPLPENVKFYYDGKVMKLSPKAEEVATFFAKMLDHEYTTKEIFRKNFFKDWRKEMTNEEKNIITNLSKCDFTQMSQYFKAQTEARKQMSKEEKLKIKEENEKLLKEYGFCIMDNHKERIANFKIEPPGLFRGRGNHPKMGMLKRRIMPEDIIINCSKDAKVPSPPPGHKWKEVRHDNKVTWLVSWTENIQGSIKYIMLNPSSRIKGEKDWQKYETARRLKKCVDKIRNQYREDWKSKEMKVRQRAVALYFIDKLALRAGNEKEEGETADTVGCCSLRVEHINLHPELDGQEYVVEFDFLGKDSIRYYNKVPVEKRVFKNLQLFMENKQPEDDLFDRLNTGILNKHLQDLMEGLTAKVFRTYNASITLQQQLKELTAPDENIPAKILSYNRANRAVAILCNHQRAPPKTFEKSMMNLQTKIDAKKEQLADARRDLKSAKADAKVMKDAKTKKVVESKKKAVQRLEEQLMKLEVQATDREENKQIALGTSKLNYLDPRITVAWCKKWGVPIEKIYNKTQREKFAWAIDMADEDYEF

MDA-MB-231 [2] = test: Induction of ROS generation in human MDA-MB-231 cells by fluorescent dye […] based flow cytometry; assay type: functional, cell-based
MDA-MB-231 [3] = test: Induction of apoptosis in human MDA-MB-231 cells assessed as increase in Bax expression at 0.1 to 0.4 uM measured after 48 hrs by Western blot analysis; assay type: functional, cell-based; details: dose 0.1-0.4 µM
HepG2 = test: Antiproliferative activity against human HepG2 cells assessed as inhibition rate incubated for 72 hrs by MTT assay; assay type: functional, cell-based; details: HepG2, 72 h
MDA-MB-231 [4] = test: Induction of DNA damage in human MDA-MB-231 cells assessed as ROS-mediated oxidative DNA lesions at 0.4 uM measured after 12 hrs by alkaline comet assay; assay type: functional, cell-based
MDA-MB-231 [5] = test: Inhibition of PI3K phosphorylation in human MDA-MB-231 cells at 0.4 uM measured after 48 hrs by Western blot analysis; assay type: cell-based
MDA-MB-231 [6] = test: Induction of ROS generation in human MDA-MB-231 cells transfected with siRNA-Top1 by fluorescent dye […] based flow cytometry; assay type: functional, cell-based
MDA-MB-231 [7] = test: Induction cell cycle arrest in human MDA-MB-231 cells assessed as increase in p21 expression at 0.4 uM measured after 48 hrs by Western blot analysis; assay type: functional, cell-based
MDA-MB-231 [8] = test: Induction of apoptosis in human MDA-MB-231 cells assessed as decrease in Bcl-2 expression at 0.1 to 0.4 uM measured after 48 hrs by Western blot analysis; assay type: functional, cell-based; details: dose 0.1-0.4 µM
MDA-MB-231 [9] = test: Antiproliferative activity against human MDA-MB-231 cells assessed as inhibition rate at 1 uM incubated for 72 hrs by MTT assay; assay type: functional
[10] = target: T1, DNA topoisomerase 1 (Homo sapiens); test: Inhibition of topoisomerase 1 (unknown origin) assessed as relaxation of supercoiled plasmid pBR322 DNA at 20 uM incubated for 15 mins by agarose gel electrophoresis
Breast carcinoma cell [11] = test: Antitumour activity against human TNBC breast carcinoma cell tissue xenografted PDTX SCID mouse model assessed as reduction in cancer cell density at 5 to 20 mg/kg treated for 7 days; assay type: functional, organism-based; details: dose 5-20 mg/kg, time 7.0 day
MDA-MB-231 [12] = test: Antiproliferative activity against human MDA-MB-231 cells transfected with siRNA-Top1 assessed as cell viability by MTT assay; assay type: functional, cell-based
Breast carcinoma cell [13] = test: Antitumour activity against human TNBC breast carcinoma cell tissue xenografted PDTX SCID mouse model assessed as reduction in Ki67 expression level at 5 to 20 mg/kg treated for 7 days by immunohistochemical analysis; assay type: functional, organism-based; details: dose 5-20 mg/kg, time 7.0 day
MDA-MB-231 [14] = test: Induction cell cycle arrest in human MDA-MB-231 cells assessed as increase in p53 expression at 0.4 uM measured after 48 hrs by Western blot analysis; assay type: functional, cell-based
MDA-MB-435 = test: Antiproliferative activity against human MDA-MB-435 cells assessed as inhibition rate incubated for 72 hrs by MTT assay; assay type: functional, cell-based; details: MDA-MB-435, 72 h
[15] = target: T1, DNA topoisomerase 1 (Homo sapiens); test: Inhibition of topoisomerase 1 (unknown origin) assessed as relaxation of supercoiled plasmid pBR322 DNA at 50 uM incubated for 15 mins by agarose gel electrophoresis
Breast carcinoma cell [16] = test: Antitumour activity against human TNBC breast carcinoma cell tissue xenografted PDTX SCID mouse model assessed as tumor cell necrosis […] at 5 to 20 mg/kg treated for 7 days; assay type: functional, organism-based; details: dose 5-20 mg/kg, time 7.0 day
MCF7 = test: Antiproliferative activity against human MCF7 cells assessed as inhibition rate incubated for 72 hrs by MTT assay; assay type: functional, cell-based; details: MCF7, 72 h
LoVo = test: Antiproliferative activity against human LoVo cells assessed as inhibition rate incubated for 72 hrs by MTT assay; assay type: functional, cell-based
MDA-MB-231 [17] = test: Induction cell cycle arrest in human MDA-MB-231 cells assessed as accumulation at G2 phase at 0.2 uM measured after 48 hrs by PI staining based flow cytometry (reference value: 10.2%); assay type: functional
MCF-10A = test: cells; assay type: ADME, cell-based; details: Homo sapiens, 72 h
Description: Antiproliferative activity against human MCF-10A cells assessed as inhibition rate incubated for 72 hrs by MTT assay

MDA-MB-231 [18] = test: Antiproliferative activity against human MDA-MB-231 cells assessed as inhibition rate incubated for 72 hrs by MTT assay; assay type: functional, cell-based; details: MDA-MB-231, 72 h
[19] = target: T1, DNA topoisomerase 1 (Homo sapiens); test: Induction of topoisomerase 1-DNA cleavable complex in human MDA-MB-231 cells assessed as increase in cleavable complex by measuring SDS-K+ precipitable complex at 15 uM measured up to 15 hrs by liquid scintillation counting analysis; assay type: cell-based; details: time hrs <=15
MDA-MB-231 [20] = test: Induction cell cycle arrest in human MDA-MB-231 cells assessed as accumulation at G2 phase at 0.4 uM measured after 48 hrs by PI staining based flow cytometry (reference value: 10.2%); assay type: functional
MDA-MB-231 [21] = test: Induction cell cycle arrest in human MDA-MB-231 cells assessed as increase in CDK2 expression at 0.4 uM measured after 48 hrs by Western blot analysis; assay type: functional, cell-based
HEK293 = test: cells; assay type: ADME, cell-based; details: Homo sapiens, HEK293, 72 h
Description: Antiproliferative activity against HEK293 cells assessed as inhibition rate incubated for 72 hrs by MTT assay

MDA-MB-231 [22] = test: Antiproliferative activity against human MDA-MB-231 cells assessed as inhibition rate at 100 uM incubated for 72 hrs by MTT assay; assay type: functional

O=C1c2cc(Cl)ccc2OC2c3oc4ccc(O)cc4c3CCN12 (stereo not drawn)
Activity [1]: inactive | Activity (MDA-MB-231 [2]): Active | Activity (MDA-MB-231 [3]): Active | IC50 (HepG2): 4.65 µM | Activity (MDA-MB-231 [4]): Active | inhibition (MDA-MB-231 [5]): Active | Activity (MDA-MB-231 [6]): Active | Activity (MDA-MB-231 [7]): Active | Activity (MDA-MB-231 [8]): Active | inhibition at 1 µM (MDA-MB-231 [9]): 82.4% | inhibition [10]: Active | Activity (Breast carcinoma cell [11]): Active | IC50 (MDA-MB-231 [12]): 9.7 µM | Activity (Breast carcinoma cell [13]): Active | Activity (MDA-MB-231 [14]): Active | IC50 (MDA-MB-435): 0.42 µM | inhibition [15]: Active | Activity (Breast carcinoma cell [16]): Active | IC50 (MCF7): 0.62 µM | IC50 (LoVo): 7.31 µM | Activity (MDA-MB-231 [17]): 5.3% | IC50 (MCF-10A): 6.76 µM | IC50 (MDA-MB-231 [18]): 0.36 µM | Activity [19]: Active | Activity (MDA-MB-231 [20]): 6.9% | Activity (MDA-MB-231 [21]): Active | IC50 (HEK293): 35.5 µM | inhibition at 100 µM (MDA-MB-231 [22]): 95.8%
